Measurements as given in patent US8623879B2, “1-heterocyclyl-1,5-dihydro-pyrazolo[3,4-D] pyrimidin-4-one derivates and their use as PDE9A modulators” (Boehringer Ingelheim International GmbH, priority 2008, dated 2014).
Read-outs that look alike come from different tables or passages of the source.

Target: T1, human PDE9A2 (Homo sapiens, UniProt O76083)
T1 construct: made in house; host or cells: Sf9 insect cells (infected); crude lysate used as enzyme source
Assay: PDE9A2 enzymatic activity assay (scintillation proximity assay, SPA)
Assay type: biochemical
Settings: for IC50: reported only as range 1-100 or 101-1200 nanomolar, specific value lies within range

[1] = read-out: % inhibition of PDE9A2 (at 10 micromolar concentration), 10 micromolar concentration, values above 100% adjusted to 100%
[2] = read-out: IC50 within range [nanomolar (nM)]
[3] = values above 100% adjusted to 100%

T1 sequence (O76083 1-533 isoform O76083-2): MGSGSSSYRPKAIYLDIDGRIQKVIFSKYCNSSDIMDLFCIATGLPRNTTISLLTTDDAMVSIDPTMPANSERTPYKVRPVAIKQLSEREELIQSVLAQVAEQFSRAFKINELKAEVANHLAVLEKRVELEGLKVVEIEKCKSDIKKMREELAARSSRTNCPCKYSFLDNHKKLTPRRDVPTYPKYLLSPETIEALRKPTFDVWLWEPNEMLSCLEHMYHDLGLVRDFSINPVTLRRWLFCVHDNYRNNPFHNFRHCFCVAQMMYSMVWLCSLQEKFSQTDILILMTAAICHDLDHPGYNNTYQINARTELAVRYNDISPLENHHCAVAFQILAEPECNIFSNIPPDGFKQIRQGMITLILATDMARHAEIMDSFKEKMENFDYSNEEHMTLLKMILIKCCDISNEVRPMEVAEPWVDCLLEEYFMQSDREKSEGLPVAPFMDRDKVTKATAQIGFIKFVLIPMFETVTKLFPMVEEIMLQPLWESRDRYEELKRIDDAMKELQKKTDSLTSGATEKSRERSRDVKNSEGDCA

| inhibition at 10 µM [1] [%] | IC50 [2] [nM] | % inhibition of PDE9A2 (at 10 micromolar concentration) [3] [%] | IC50 (IC50 within range [nanomolar (nM)]) [nM] | inhibition at 10 µM (read-out: % inhibition of PDE9A2 (at 10 micromolar concentration)) [%] | SMILES |
| --- | --- | --- | --- | --- | --- |
| 99 | 101 to 1200 |  |  |  | CC(=O)N1CCC(n2ncc3c(=O)[nH]c(CC4CCCC4)nc32)C1 (racemic) [Example 165] |
| 100 | 1 to 100 |  |  |  | COc1ccc(Cc2nc3c(cnn3C3CCOCC3)c(=O)[nH]2)c(Cl)c1 [Example 40-2] |
| 92 | 101 to 1200 |  |  |  | CCOc1ccccc1Cc1nc2c(cnn2C2CCCN(C(=O)c3ccccc3)C2)c(=O)[nH]1 (racemic) [Example 178] |
| 86 | 101 to 1200 |  |  |  | CN1CCC(n2ncc3c(=O)[nH]c(Cc4ccccc4)nc32)CC1 [Example 148] |
| 96 | 1 to 100 |  |  |  | CN1CCCC(n2ncc3c(=O)[nH]c(Cc4cccc(C(F)(F)F)c4)nc32)C1 (racemic) [Example 216] |
| 100 | 1 to 100 |  |  |  | CC(C)Cc1nc2c(cnn2C2CCOCC2)c(=O)[nH]1 [Example 143] |
| 96 | 1 to 100 |  |  |  | O=c1[nH]c(Cc2ccccn2)nc2c1cnn2C1CCOCC1 [Example 51] |
| 91 | 101 to 1200 |  |  |  | CCOc1ccccc1Cc1nc2c(cnn2C2CCCN(C(C)=O)C2)c(=O)[nH]1 (racemic) [Example 179] |
| 98 | 1 to 100 |  |  |  | O=c1[nH]c(CC2CC2)nc2c1cnn2C1CCSCC1 [Example 40-5] |
|  | 101 to 1200 | 95 |  |  | O=c1[nH]c(CC2CCC2)nc2c1cnn2C1CCOC1 (single isomer, unassigned) [Example 132-9] |
| 100 | 1 to 100 |  |  |  | CC(C)(C)OC(=O)N1CCCC(n2ncc3c(=O)[nH]c(CC4CCCC4)nc32)C1 (racemic) [Example 17] |
| 99 | 1 to 100 |  |  |  | CCC(CC)Cc1nc2c(cnn2C2CCCOC2)c(=O)[nH]1 (racemic) [Example 130] |
| 98 | 1 to 100 |  |  |  | CCC(CC)Cc1nc2c(cnn2C2CCOC2)c(=O)[nH]1 (racemic) [Example 76] |
| 86 | 101 to 1200 |  |  |  | CC(C)(C)OC(=O)N1CCC(n2ncc3c(=O)[nH]c(CC4CCC4)nc32)C1 (racemic) [Example 16] |
| 88 | 101 to 1200 |  |  |  | O=c1[nH]c(Cc2ccccc2)nc2c1cnn2C1CCNC1 (racemic) [Example 199] |
| 98 | 1 to 100 |  |  |  | CC(C)(C)OC(=O)N1CCCC(n2ncc3c(=O)[nH]c(Cc4cccc(C(F)(F)F)c4)nc32)C1 (racemic) [Example 22] |
| 98 | 1 to 100 |  |  |  | CC(C)(C)OC(=O)N1CCCC(n2ncc3c(=O)[nH]c(Cc4ccccn4)nc32)C1 (racemic) [Example 20] |
| 91 | 101 to 1200 |  |  |  | O=c1[nH]c(Cc2ccccc2)nc2c1cnn2C1CCCNC1 (racemic) [Example 197] |
| 99 | 1 to 100 |  |  |  | O=c1[nH]c(Cc2cccc(F)c2)nc2c1cnn2C1CCOCC1 [Example 139] |
| 97 | 1 to 100 |  |  |  | CC(=O)N1CCC(Oc2ccccc2Cc2nc3c(cnn3C3CCOCC3)c(=O)[nH]2)CC1 [Example 68] |
| 99 | 1 to 100 |  |  |  | O=c1[nH]c(Cc2ccc(F)c(Cl)c2)nc2c1cnn2C1CCOCC1 [Example 137] |

| inhibition at 10 µM [1] [%] | IC50 [2] [nM] | % inhibition of PDE9A2 (at 10 micromolar concentration) [3] [%] | IC50 (IC50 within range [nanomolar (nM)]) [nM] | inhibition at 10 µM (read-out: % inhibition of PDE9A2 (at 10 micromolar concentration)) [%] | SMILES |
| --- | --- | --- | --- | --- | --- |
| 97 | 101 to 1200 |  |  |  | CN1CCCC(n2ncc3c(=O)[nH]c(Cc4ccccc4F)nc32)C1 (racemic) [Example 217] |
| 98 | 1 to 100 |  |  |  | O=c1[nH]c(Cc2ccc(F)cc2Cl)nc2c1cnn2C1CCOCC1 [Example 10] |
| 100 | 1 to 100 |  |  |  | CCOc1ccccc1Cc1nc2c(cnn2C2CCOCC2)c(=O)[nH]1 [Example 52] |
| 99 | 101 to 1200 |  |  |  | O=c1[nH]c(CC2CCCC2)nc2c1cnn2C1CCCN(CC(F)F)C1 (racemic) [Example 193] |
| 95 | 1 to 100 |  |  |  | O=c1[nH]c(Cc2cccc(C(F)(F)F)c2)nc2c1cnn2C1CCCCO1 (racemic) [Example 147-3] |
| 75 | 101 to 1200 |  |  |  | COc1ccccc1Cc1nc2c(cnn2C2CCN(C(=O)c3ccccc3)C2)c(=O)[nH]1 (racemic) [Example 170] |
| 99 | 1 to 100 |  |  |  | O=c1[nH]c(Cc2ccccc2OC(F)(F)F)nc2c1cnn2C1CCCOC1 (racemic) [Example 91] |
| 96 | 1 to 100 |  |  |  | O=c1[nH]c(Cc2ccccc2O[C@H]2CCOC2)nc2c1cnn2C1CCOCC1 [Example 58] |
| 100 | 1 to 100 |  |  |  | CCOc1ccccc1Cc1nc2c(cnn2C2CCCN(C(=O)OC(C)(C)C)C2)c(=O)[nH]1 (racemic) [Example 30] |
| 98 | 101 to 1200 |  |  |  | C=Cc1cc(OC)ccc1Cc1nc2c(cnn2C2CCOCC2)c(=O)[nH]1 [Example 230-4] |
| 89 | 101 to 1200 |  |  |  | CCC(Cc1nc2c(cnn2C2CCOC2)c(=O)[nH]1)C(F)(F)F (mixture of isomers) [Example 77] |
| 82 | 101 to 1200 |  |  |  | CN(C)C(=O)N1CCC(n2ncc3c(=O)[nH]c(Cc4ccccc4)nc32)C1 (racemic) [Example 190] |
| 100 | 1 to 100 |  |  |  | O=C(Oc1ccc(F)cc1)N1CCCC(n2ncc3c(=O)[nH]c(Cc4ccccc4)nc32)C1 (racemic) [Example 185] |
| 96 | 1 to 100 |  |  |  | CC(=O)N1CCCC(n2ncc3c(=O)[nH]c(Cc4ccccc4F)nc32)C1 (racemic) [Example 187] |
| 97 | 1 to 100 |  |  |  | N#Cc1cccc(Cc2nc3c(cnn3C3CCCOC3)c(=O)[nH]2)c1 (racemic) [Example 98] |
| 99 | 1 to 100 |  |  |  | Cc1ccccc1Cc1nc2c(cnn2C2CCOCC2)c(=O)[nH]1 [Example 2] |
| 93 | 101 to 1200 |  |  |  | CN1CCCC(n2ncc3c(=O)[nH]c(Cc4ccccc4)nc32)C1 (racemic) [Example 215] |
| 99 | 1 to 100 |  |  |  | O=c1[nH]c(CC2CCCCC2)nc2c1cnn2C1CCCOC1 (racemic) [Example 103] |
| 92 | 101 to 1200 |  |  |  | O=c1[nH]c(CC2CCCO2)nc2c1cnn2C1CCOCC1 (racemic) [Example 42] |
| 99 | 1 to 100 |  |  |  | O=c1[nH]c(Cc2cccc(C(F)(F)F)c2)nc2c1cnn2C1CCCOC1 (racemic) [Example 129] |
| 92 | 101 to 1200 |  |  |  | COc1ccccc1Cc1nc2c(cnn2C2CCN(C)C2)c(=O)[nH]1 (racemic) [Example 212] |

| inhibition at 10 µM [1] [%] | IC50 [2] [nM] | % inhibition of PDE9A2 (at 10 micromolar concentration) [3] [%] | IC50 (IC50 within range [nanomolar (nM)]) [nM] | inhibition at 10 µM (read-out: % inhibition of PDE9A2 (at 10 micromolar concentration)) [%] | SMILES |
| --- | --- | --- | --- | --- | --- |
|  | 1 to 100 | 95 |  |  | CCC(Cc1nc2c(cnn2C2CCOCC2)c(=O)[nH]1)C(F)(F)F (single isomer, unassigned) [Example 62] |
|  | 101 to 1200 | 92 |  |  | CC(C)Cc1nc2c(cnn2C2CCOC(C)C2)c(=O)[nH]1 (racemic) [Example 115] |
| 92 | 101 to 1200 |  |  |  | CC(C)(C)OC(=O)N1CCC(n2ncc3c(=O)[nH]c(Cc4ccccc4)nc32)C1 (racemic) [Example 15] |
| 91 | 101 to 1200 |  |  |  | CC(C)Cc1nc2c(cnn2C2CCCCO2)c(=O)[nH]1 (racemic) [Example 146] |
| 100 | 1 to 100 |  |  |  | O=c1[nH]c(Cc2ccc(F)c(Cl)c2)nc2c1cnn2C1CCCOC1 (racemic) [Example 102] |
| 95 | 101 to 1200 |  |  |  | CC1(C)CC(n2ncc3c(=O)[nH]c(CC4CCCC4)nc32)CCO1 (racemic) [Example 104] |
| 96 | 1 to 100 |  |  |  | CN(C)C(=O)N1CCCC(n2ncc3c(=O)[nH]c(CC4CCCC4)nc32)C1 (racemic) [Example 160] |
| 100 | 1 to 100 |  |  |  | O=c1[nH]c(Cc2cccc(C(F)(F)F)c2)nc2c1cnn2C1CCCNC1 (racemic) [Example 205] |
| 98 | 1 to 100 |  |  |  | CCC(C)Cc1nc2c(cnn2C2CCCOC2)c(=O)[nH]1 (mixture of isomers) [Example 95] |
|  |  |  | 1 to 100 | 99 | O=c1[nH]c(Cc2ccccc2)nc2c1cnn2C1CCOCC1 [Example 40] |
| 97 | 1 to 100 |  |  |  | CCC(C)Cc1nc2c(cnn2C2CCOC2)c(=O)[nH]1 (mixture of isomers) [Example 84] |
| 100 | 1 to 100 |  |  |  | COC(=O)N1CCCC(n2ncc3c(=O)[nH]c(Cc4ccccc4)nc32)C1 (racemic) [Example 155] |
| 84 | 101 to 1200 |  |  |  | O=c1[nH]c(Cc2ccccc2OC(F)(F)F)nc2c1cnn2C1CCNCC1 [Example 203] |
| 100 | 101 to 1200 |  |  |  | COc1ccccc1CCc1nc2c(cnn2C2CCOCC2)c(=O)[nH]1 [Example 40-3] |
| 100 | 1 to 100 |  |  |  | CCCCc1nc2c(cnn2C2CCOCC2)c(=O)[nH]1 [Example 8] |
| 100 | 1 to 100 |  |  |  | O=c1[nH]c(CC2CCCCCC2)nc2c1cnn2C1CCOCC1 [Example 1] |
| 88 | 101 to 1200 |  |  |  | CC1CC(n2ncc3c(=O)[nH]c(Cc4ccccn4)nc32)CCO1 (racemic) [Example 111] |
| 100 | 1 to 100 |  |  |  | CC(Cc1nc2c(cnn2C2CCOCC2)c(=O)[nH]1)C(F)(F)F (racemic) [Example 46] |
| 87 | 101 to 1200 |  |  |  | O=c1[nH]c(CC2CC2)nc2c1cnn2C1CCCCO1 (racemic) [Example 147-2] |
| 95 | 1 to 100 |  |  |  | O=c1[nH]c(Cc2ccccc2OC2CCCC2)nc2c1cnn2C1CCOCC1 [Example 125] |
| 96 | 1 to 100 |  |  |  | CCC(Cc1nc2c(cnn2C2CCOCC2)c(=O)[nH]1)C(F)(F)F (racemic) [Example 48] |
